The subject of assay [1] is Ii processing in HOM2 cells. As to the kind of experiment: 35S pulse/chase of HOM2 cells, Tu36 immunoprecipitation, SDS-PAGE: Ii processing and SDS-stable class II peptide complexes. Type of assay: cell-based, human. As to conditions: E64D. The source says: Lysates were precleared with protein A-agarose.
Samples were eluted with SDS-PAGE sample buffer.

For assay [2], the target named is cathepsin D (Homo sapiens, UniProt P07339). Particulars: Alteri et al. 1993; cited from earlier work.
Chain of cathepsin D (P07339 65-412, species assumed): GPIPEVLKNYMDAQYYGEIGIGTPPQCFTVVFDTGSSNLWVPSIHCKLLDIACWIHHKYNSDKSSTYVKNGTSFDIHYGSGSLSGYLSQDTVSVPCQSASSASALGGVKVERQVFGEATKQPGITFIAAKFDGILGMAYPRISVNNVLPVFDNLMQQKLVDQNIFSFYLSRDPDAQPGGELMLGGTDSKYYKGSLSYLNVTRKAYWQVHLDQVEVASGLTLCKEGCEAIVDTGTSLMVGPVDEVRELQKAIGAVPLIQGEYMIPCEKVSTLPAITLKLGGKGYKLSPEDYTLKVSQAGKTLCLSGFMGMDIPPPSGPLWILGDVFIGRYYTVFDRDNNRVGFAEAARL
Assay [3] has as its target cathepsin S (Homo sapiens, UniProt P25774). As to the kind of experiment: Active site labeling of cysteine proteases with Cbz-[125I]-Tyr-Ala-CN2 in HOM2 cells: cathepsin S. Type of assay: cell-based.
The target in assay [4] is cathepsin B (Homo sapiens, UniProt P07858). As to the kind of experiment: Active site labeling of cysteine proteases with Cbz-[125I]-Tyr-Ala-CN2 in HOM2 cells: cathepsin B. Type of assay: cell-based. An excerpt: SIDS, 1% Triton X-100 on ice.
Assay [5] has as its target T1, human cathepsin H (Homo sapiens, UniProt P09668).
T1 construct: purchased Calbiochem-Novabiochem Corp., San Diego, Calif
T1 sequence (P09668 98-335): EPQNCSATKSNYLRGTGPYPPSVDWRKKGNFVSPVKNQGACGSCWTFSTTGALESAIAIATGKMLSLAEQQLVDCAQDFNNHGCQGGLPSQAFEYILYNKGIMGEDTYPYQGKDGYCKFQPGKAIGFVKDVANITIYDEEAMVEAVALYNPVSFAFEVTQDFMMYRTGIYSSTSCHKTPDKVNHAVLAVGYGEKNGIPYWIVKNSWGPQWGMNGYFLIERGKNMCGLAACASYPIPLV
As to the kind of experiment: Inhibition of purified human cathepsin H. Particulars: purified enzyme. Type of assay: biochemical. An excerpt: Purified human cathepsin H (obtained from Calbiochem-Novabiochem Corp., San Diego, Calif.) was not inhibited with LHVS nor did it display any proteolytic activity against immunoprecipitated αβIi, implying that cathepsin H is not an essential protease for Ii degradation.

The test system of assay [6] is Ii processing in HOM2 cells. As to conditions: leupeptin; Neefjes and Ploegh 1992; cited from earlier work.
The subject of assay [7] is multiple sclerosis. The experiment in a line: Treating multiple sclerosis in a human. Particulars: intravenous injection once a day, 500 mg/70 kg body weight.
Assay [8] has as its system pemphigus vulgaris. As to the kind of experiment: Treating pemphigus vulgaris in a human. Type of assay: in vivo. As to conditions: topical ointment 50 mg/gm, daily. The protocol: The dose is 50 mg/gm of ointment and is applied daily to the affected area.

Chain of cathepsin S (P25774 115-331): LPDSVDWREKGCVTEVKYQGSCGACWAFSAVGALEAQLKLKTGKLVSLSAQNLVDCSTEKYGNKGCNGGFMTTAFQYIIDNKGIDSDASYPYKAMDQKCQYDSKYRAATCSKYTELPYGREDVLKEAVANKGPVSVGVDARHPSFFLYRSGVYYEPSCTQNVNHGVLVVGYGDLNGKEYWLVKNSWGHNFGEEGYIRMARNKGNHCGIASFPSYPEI

Regarding `CCOC(=O)[C@H]1O[C@@H]1C(=O)N[C@@H](CC(C)C)C(=O)NCCC(C)C` (relative stereo) [E64D], in assay [1], the SDS-stable dimer formation result is recorded as “decrease in SDS-stable dimer formation”.
Take `CC(C)[C@H](NC(=O)[C@H](Cc1ccccc1)C[C@H](O)[C@H](Cc1ccccc1)NC(=O)OC(C)(C)C)C(=O)N[C@@H](Cc1ccccc1)C(=O)N1CCOCC1` [CGP 53437]: the “inhibits cathepsin D (potency range)” value in assay [2] was “nanomolar range”.
As to `CC(C)C[C@H](NC(=O)N1CCOCC1)C(=O)N[C@H](/C=C/S(=O)(=O)c1ccccc1)CCc1ccccc1` [LHVS, morpholinurea-leucine-homophenylalanine-vinylsulfone phenyl], in assay [3], the “concentrations that specifically inhibit cathepsin S, leaving other cysteine proteases functionally active” value was in the range of 1 to 5 nM. Besides, the “labeling of cathepsin S with Cbz-[125I]-Tyr-Ala-CN2” value in assay [3] (LHVS 1 nM, 1 hour preincubation at 37° C.) is given as “effectively inhibited”. Besides, the “labeling of cathepsin B with Cbz-[125I]-Tyr-Ala-CN2” value is “but not cathepsin B” in assay [4] (LHVS 1 nM) and “decreased, although some activity remained” in assay [4] (LHVS 5 nM). Besides, the “inhibition of purified human cathepsin H” value in assay [5] is “not inhibited”.
`CC(=O)N[C@@H](CC(C)C)C(=O)N[C@@H](CC(C)C)C(=O)N[C@H](C=O)CCCNC(=N)N` [leupeptin]: the “SDS-stable complexes (peptide-loaded αβ-dimers)” value in assay [6] is “decrease”.
For Leu-Arg-Met-vinylsulfone, the “effect on multiple sclerosis” value in assay [7] is “alleviates the effects of multiple sclerosis”.
Turning to N-(carboxybenzyl)-Arg-Met-vinylsulfone, the “effect on pemphigus vulgaris” value in assay [8] is recorded as “alleviates the effects of pemphigus vulgaris”.

These data come from patent publication US7427591B2, “Suppression of immune response via inhibition of cathepsin S” (Massachusetts Institute of Technology, priority 1996, dated 2008).
